{
  "source": "patent US20190185479A1",
  "about": "“BICYCLIC NITROGENATED HETEROCYCLIC COMPOUND” (MITSUBISHI TANABE PHARMA CORPORATION, priority 2016, published 2019)",
  "data": [
    {"target": "T1, Human PDE7B (hPDE7B) (Homo sapiens, UniProt Q9NP56)", "T1 construct": "made in house; host or cells: COS-7 cells", "T1 sequence (Q9NP56 whole entry)": "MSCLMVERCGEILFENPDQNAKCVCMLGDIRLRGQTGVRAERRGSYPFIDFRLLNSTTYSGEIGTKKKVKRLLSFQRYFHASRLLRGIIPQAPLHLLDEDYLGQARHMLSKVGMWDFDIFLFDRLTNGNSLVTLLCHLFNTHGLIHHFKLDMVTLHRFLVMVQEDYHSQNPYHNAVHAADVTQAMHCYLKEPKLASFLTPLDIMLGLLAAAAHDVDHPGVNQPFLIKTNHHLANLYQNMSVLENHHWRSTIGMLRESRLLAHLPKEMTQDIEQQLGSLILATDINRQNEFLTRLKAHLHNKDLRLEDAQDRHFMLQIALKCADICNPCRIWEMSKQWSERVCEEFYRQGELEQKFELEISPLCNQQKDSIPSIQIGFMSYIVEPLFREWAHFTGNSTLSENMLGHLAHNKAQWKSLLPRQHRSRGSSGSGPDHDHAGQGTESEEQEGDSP", "assay": "Measurement of PDE7 inhibitory activity (Experimental Example 1; residual cAMP, LANCE Ultra cAMP TR-FRET)", "type": "biochemical", "conditions": "cAMP 3 nmol/L, room temperature 60 minutes", "description": "(§1) Human PDE7B (hPDE7B) was isolated from COS-7 cells transfected with plasmids encoding hPDE7B according to the method described in a reference, Biochemical and Biophysical Research Communication, 271, p. 575-583 (2000). The resulting enzyme solution was used in the PDE assay.\n(§2) PDE7 inhibitory assay was carried out by reacting the mixture of a compound, hPDE7B, and cAMP, and measuring the residual cAMP by a detection method using LANCE (registered trademark) Ultra cAMP Detection Kit (ParkinElmer). The compound was dissolved in DMSO, and diluted so that the concentration would become 50 times of the final concentration. The hPDE7B and cAMP were diluted with an assay buffer (50 mmol/L Tris-HCl, 1 mmol/L MgCl2, 0.1% BSA, 0.5 mmol/L DTT, pH7.5) so that the hPDE7B would have an appropriate enzyme activity and the concentration of cAMP would become 6 nmol/L. To a 96 well plate were added the compound (2 μL) (DMSO final concentration: 2%), hPDE7B (48 μL), and cAMP (50 μL) (concentration at the reaction: 3 nmol/L), and the resulting mixture was reacted at room temperature for 60 minutes. The reaction solution (20 μL) was subjected to a TR-FRET method according to the protocol specified by the kit to measure the concentration of the residual cAMP. In the assay, to a tracer solution specified by the kit was added 0.5 mmol/L of 3-isobutyl-1-methylxanthine (IBMX, nonselective PDE inhibitor) in order to stop the PDE enzyme reaction after the completion of reaction until the measurement.\n(§3) The reaction without a compound was defined as “0% inhibition”, the reaction without hPDE7B was defined as “100% inhibition”, and the inhibition rate of the compound was calculated by the following equation.\n(§4) Inhibition rate of compound (%)={(Residual cAMP concentration at the addition of compound−Residual cAMP concentration in 0% inhibition)/(Residual cAMP concentration in 100% inhibition−Residual cAMP concentration in 0% inhibition)}×100", "units": {"IC50": "nM"}, "values": [
      {"smiles": "CC1CCCC(c2nnc3c(N)ncnn23)C1", "note": "(single isomer, unassigned) [Example 71, 3-(cis-3-methylcyclohexyl) [1,2,4]triazolo[3,4-f][1,2,4]triazin-8-amine]", "IC50": 4},
      {"smiles": "Nc1nccn2c(C3CCCCN3c3ncccn3)nnc12", "note": "(racemic) [Example 250, 3-(1-(pyrimidin-2-yl)piperidin-2-yl)-[1,2,4]triazolo[4,3-a]pyrazin-8-amine]", "IC50": 180},
      {"smiles": "Nc1nccn2c(C3CCc4ccccc4C3)nnc12", "note": "(racemic) [Example 77, 3-(1,2,3,4-tetrahydronaphthalen-2-yl)-[1,2,4]triazolo[4,3-a]pyrazin-8-amine]", "IC50": 310},
      {"smiles": "Nc1nccn2c(N3CCCCC3c3ccccc3)nnc12", "note": "(stereo not shown) [Example 41]", "IC50": 290},
      {"smiles": "Nc1nccn2c(C3CCC3)nnc12", "note": "[Example 18]", "IC50": 460},
      {"smiles": "CCOc1nc(N)c2nnn(C3CCCCC3)c2n1", "note": "[Example 93, 3-cyclohexyl-5-ethoxy-3H-[1,2,3]triazolo[4,5-d]pyrimidin-7-amine]", "IC50": 20},
      {"smiles": "CO[C@H]1CCCC[C@H]1n1nnc2c(N)ncnc21", "note": "(racemic) [Example 111, 3-[cis-2-methoxycyclohexyl]-3H-[1,2,3]triazolo[4,5-d]pyrimidin-7-amine]", "IC50": 320},
      {"smiles": "Nc1ncnc2c1nnn2-c1cccc(C(F)(F)F)c1", "note": "[Example 130]", "IC50": 490},
      {"smiles": "CC1CCN(c2nnc3c(N)nccn23)CC1C", "note": "(single isomer, unassigned) [Example 229, 3-(3,4-dimethylpiperidin-1-yl) [1,2,4]triazolo[4,3-a]pyrazin-8-amine]", "IC50": 310},
      {"smiles": "CC1CC(C)CN(c2nnc3c(N)nccn23)C1", "note": "(racemic) [Example 53, 3-[trans-3,5-dimethylpiperidin-1-yl][1,2,4]triazolo[4,3-a]pyrazin-8-amine]", "IC50": 20},
      {"smiles": "Nc1nccn2c(N3CCCC4(CCCC4)C3)nnc12", "note": "[Example 45]", "IC50": 210},
      {"smiles": "Nc1ncnc2c1nnn2C12CC3CC(CC(C3)C1)C2", "note": "[Example 10]", "IC50": 100},
      {"smiles": "Nc1ncnc2c1nnn2C1CCCCC1C(F)(F)F", "note": "(racemic) [Example 96]", "IC50": 950},
      {"smiles": "Nc1ncnc2c1nnn2C1CCCC(C(F)(F)F)C1", "note": "(single isomer, unassigned) [Example 203, 3-[cis-3-(trifluoromethyl)cyclohexyl]-3H-[1,2,3]triazolo[4,5-d]pyrimidin-7-amine]", "IC50": "> 1000"},
      {"smiles": "Nc1nccn2c(N3CCCCC3C(F)(F)F)nnc12", "note": "(stereo not shown) [Example 39]", "IC50": 220},
      {"smiles": "Nc1ncnc2c1nnn2C1CCCC(C(F)F)C1", "note": "(single isomer, unassigned) [Example 201]", "IC50": "> 1000"},
      {"smiles": "Nc1nccn2c(N3CCCC(C(F)(F)F)C3)nnc12", "note": "(single isomer, unassigned) [Example 225]", "IC50": 540},
      {"smiles": "CC1(C)CC(c2nnc3c(N)nccn23)CC(F)(F)C1", "note": "(single isomer, unassigned) [Example 178, 3-(3,3-difluoro-5,5-dimethylcyclohexyl) [1,2,4]triazolo[4,3-a]pyrazin-8-amine]", "IC50": "> 1000"},
      {"smiles": "Nc1ncnc2c1nnn2C1CCCCC1F", "note": "(stereo not shown) [Example 112]", "IC50": 170},
      {"smiles": "Nc1nccn2c(N3CCCCCCC3)nnc12", "note": "[Example 30]", "IC50": 390},
      {"smiles": "Nc1ncnc2c1nnn2[C@H]1CCC[C@@H](C(F)(F)F)C1", "note": "(racemic) [Example 87, 3-[cis-3-(trifluoromethyl)cyclohexyl]-3H-[1,2,3]triazolo[4,5-d]pyrimidin-7-amine]", "IC50": 30},
      {"smiles": "Nc1ncnc2c1nnn2C1CCCC(C(F)F)C1", "note": "(stereo not shown) [Example 119]", "IC50": 20},
      {"smiles": "Nc1nccn2c(N3CCCC(C(F)(F)F)C3)nnc12", "note": "(single isomer, unassigned) [Example 224]", "IC50": 170},
      {"smiles": "Nc1nccn2c(C3CCCC(C(F)(F)F)C3)nnc12", "note": "(racemic) [Example 146, 3-[cis-3-(trifluoromethyl)cyclohexyl][1,2,4]triazolo[4,3-a]pyrazin-8-amine]", "IC50": 40},
      {"smiles": "Nc1nccn2c(C3CCCC(C(F)(F)F)C3)nnc12", "note": "(single isomer, unassigned) [Example 211, 3-[cis-3-(trifluoromethyl)cyclohexyl][1,2,4]triazolo[4,3-a]pyrazin-8-amine]", "IC50": "> 1000"},
      {"smiles": "CC1CCC(F)(F)CC1c1nnc2c(N)nccn12", "note": "(racemic) [Example 152, 3-(cis-5,5-difluoro-2-methylcyclohexyl) [1,2,4]triazolo[4,3-a]pyrazin-8-amine]", "IC50": "< 10"},
      {"smiles": "C[C@@H]1CCC[C@@H](C)N1c1nnc2c(N)nccn12", "note": "[Example 63]", "IC50": 304},
      {"smiles": "Nc1ncnc2c1nnn2C1CCCc2ccccc21", "note": "(stereo not shown) [Example 33]", "IC50": 520},
      {"smiles": "CC1CCC(C(F)(F)F)CC1c1nnc2c(N)nccn12", "note": "(single isomer, unassigned) [Example 173, 3-[2-methyl-5-(trifluoromethyl)cyclohexyl][1,2,4]triazolo[4,3-a]pyrazin-8-amine]", "IC50": "> 1000"},
      {"smiles": "COC1CCCC(n2nnc3c(N)ncnc32)C1", "note": "(stereo not shown) [Example 121]", "IC50": 870},
      {"smiles": "CC1(C)CCCC(c2nnc3c(N)ncnn23)C1", "note": "(single isomer, unassigned) [Example 243, 3-(3,3-dimethylcyclohexyl) [1,2,4]triazolo[3,4-f][1,2,4]triazin-8-amine]", "IC50": 120},
      {"smiles": "Nc1ncnc2c1nnn2C1CCc2ccccc2C1", "note": "(stereo not shown) [Example 34]", "IC50": 460},
      {"smiles": "CC1CC(c2nnc3c(N)nccn23)CC(F)(F)C1", "note": "(single isomer, unassigned) [Example 215]", "IC50": 530},
      {"smiles": "Nc1nccn2c(N3CCCC(F)(F)C3)nnc12", "note": "[Example 47]", "IC50": 300},
      {"smiles": "Nc1nccn2c(C3CCCC4(CC4)C3)nnc12", "note": "(single isomer, unassigned) [Example 209, 3-(spiro[2,5]oct-5-yl) [1,2,4]triazolo[4,3-a]pyrazin-8-amine]", "IC50": 130},
      {"smiles": "Nc1nccn2c([C@@H]3C[C@@H]4CC[C@H]3C4)nnc12", "note": "[Example 162]", "IC50": 170},
      {"smiles": "CC1CCC(F)(F)CC1c1nnc2c(N)ncnn12", "note": "(single isomer, unassigned) [Example 247, 3-(cis-5,5-difluoro-2-methylcyclohexyl) [1,2,4]triazolo[3,4-f][1,2,4]triazin-8-amine]", "IC50": 629},
      {"smiles": "Nc1nccn2c(C3CCC(F)(F)CC3)nnc12", "note": "[Example 150]", "IC50": 130},
      {"smiles": "CC1CCCCC1n1nnc2c(N)ncnc21", "note": "(racemic) [Example 1, 3-(trans-2-methylcyclohexyl)-3H-[1,2,3]triazolo[4,5-d]pyrimidin-7-amine]", "IC50": 80},
      {"smiles": "Nc1ncnc2c1nnn2C1CCCC(CC(F)(F)F)C1", "note": "(stereo not shown) [Example 120]", "IC50": 380},
      {"smiles": "CC(C)[C@@H]1CC[C@@H](C)[C@@H](n2nnc3c(N)ncnc32)C1", "note": "[Example 132, 3-[(1S,2R,5R)-2-methyl-5-(propan-2-yl)cyclohexyl]-3H-[1,2,3]triazolo[4,5-d]pyrimidin-7-amine]", "IC50": 670},
      {"smiles": "Nc1nccn2c(C3CCC4CC4C3)nnc12", "note": "(single isomer, unassigned) [Example 220, 3-(bicyclo[4.1.0]hept-3-yl) [1,2,4]triazolo[4,3-a]pyrazin-8-amine]", "IC50": 110},
      {"smiles": "Nc1ncnc2c1nnn2C1CCCC(CO)C1", "note": "(stereo not shown) [Example 124]", "IC50": 260},
      {"smiles": "Nc1ncnc2c1nnn2[C@H]1CCCN(Cc2ccccc2)C1", "note": "[Example 138, 3-[(3S)-1-benzylpiperidin-3-yl]-3H-[1,2,3]triazolo[4,5-d]pyrimidin-7-amine]", "IC50": 340}
    ]},
    {"target": "T1, Human PDE7B (hPDE7B)", "assay": "Measurement of PDE7 inhibitory activity (Experimental Example 1; residual cAMP, LANCE Ultra cAMP TR-FRET)", "type": "biochemical", "conditions": "compound at 1 μmol/L", "description": "as §1, §2, §3, §4", "units": {"inhibition at 1 µM": "%"}, "values": [
      {"smiles": "Nc1ncnc2c1nnn2C1CCCC(C(F)(F)F)C1", "note": "(single isomer, unassigned) [Example 203, 3-[cis-3-(trifluoromethyl)cyclohexyl]-3H-[1,2,3]triazolo[4,5-d]pyrimidin-7-amine]", "inhibition at 1 µM": 27},
      {"smiles": "Nc1ncnc2c1nnn2C1CCCC(C(F)F)C1", "note": "(single isomer, unassigned) [Example 201]", "inhibition at 1 µM": 20},
      {"smiles": "CC1(C)CC(c2nnc3c(N)nccn23)CC(F)(F)C1", "note": "(single isomer, unassigned) [Example 178, 3-(3,3-difluoro-5,5-dimethylcyclohexyl) [1,2,4]triazolo[4,3-a]pyrazin-8-amine]", "inhibition at 1 µM": 33},
      {"smiles": "Nc1nccn2c(C3CCCC(C(F)(F)F)C3)nnc12", "note": "(single isomer, unassigned) [Example 211, 3-[cis-3-(trifluoromethyl)cyclohexyl][1,2,4]triazolo[4,3-a]pyrazin-8-amine]", "inhibition at 1 µM": 20},
      {"smiles": "CC1CCC(C(F)(F)F)CC1c1nnc2c(N)nccn12", "note": "(single isomer, unassigned) [Example 173, 3-[2-methyl-5-(trifluoromethyl)cyclohexyl][1,2,4]triazolo[4,3-a]pyrazin-8-amine]", "inhibition at 1 µM": 3}
    ]}
  ]
}
